Earlier results, collected in patent publication US9561272B2, “Compositions and methods for modulating immune responses” (The University of Queensland, priority 2006, dated 2017).

B1: PIAS3 (protein, UniProt Q9Y6X2 1-628, looked up)
E3 SUMO-protein ligase PIAS3: MAELGELKHMVMSFRVSELQVLLGFAGRNKSGRKHELLAKALHLLKSSCAPSVQMKIKELYRRRFPRKTLGPSDLSLLSLPPGTSPVGSPGPLAPIPPTLLAPGTLLGPKREVDMHPPLPQPVHPDVTMKPLPFYEVYGELIRPTTLASTSSQRFEEAHFTFALTPQQVQQILTSREVLPGAKCDYTIQVQLRFCLCETSCPQEDYFPPNLFVKVNGKLCPLPGYLPPTKNGAEPKRPSRPINITPLARLSATVPNTIVVNWSSEFGRNYSLSVYLVRQLTAGTLLQKLRAKGIRNPDHSRALIKEKLTADPDSEVATTSLRVSLMCPLGKMRLTVPCRALTCAHLQSFDAALYLQMNEKKPTWTCPVCDKKAPYESLIIDGLFMEILSSCSDCDEIQFMEDGSWCPMKPKKEASEVCPPPGYGLDGLQYSPVQGGDPSENKKKVEVIDLTIESSSDEEDLPPTKKHCSVTSAAIPALPGSKGVLTSGHQPSSVLRSPAMGTLGGDFLSSLPLHEYPPAFPLGADIQGLDLFSFLQTESQHYGPSVITSLDEQDALGHFFQYRGTPSHFLGPLAPTLGSSHCSATPAPPPGRVSSIVAPGGALREGHGGPLPSGPSLTGCRSDIISLD
B2: Secretory leukoprotease inhibitor (SLPI) (protein, UniProt P03973 26-132, looked up)
Antileukoproteinase: SGKSFKAGVCPPKKSAQCLRYKKPECQSDWQCPGKKRCCPDTCGIKCLDPVDTPNPTRRKPGKCPVTYGQCLMLNPPNFCEMDGQCKRDLKCCMGMCGKSCVSPVKA
B3: Siah2 (protein, UniProt O43255 1-324, looked up)
E3 ubiquitin-protein ligase …: MSRPSSTGPSANKPCSKQPPPQPQHTPSPAAPPAAATISAAGPGSSAVPAAAAVISGPGGGGGAGPVSPQHHELTSLFECPVCFDYVLPPILQCQAGHLVCNQCRQKLSCCPTCRGALTPSIRNLAMEKVASAVLFPCKYATTGCSLTLHHTEKPEHEDICEYRPYSCPCPGASCKWQGSLEAVMSHLMHAHKSITTLQGEDIVFLATDINLPGAVDWVMMQSCFGHHFMLVLEKQEKYEGHQQFFAIVLLIGTRKQAENFAYRLELNGNRRRLTWEATPRSIHDGVAAAIMNSDCLVFDTAIAHLFADNGNLGINVTISTCCP
B4: SIRT1 Deacetylase overexpression (protein, UniProt Q96EB6 2-747, looked up)
NAD-dependent protein …: ADEAALALQPGGSPSAAGADREAASSPAGEPLRKRPRRDGPGLERSPGEPGGAAPEREVPAAARGCPGAAAAALWREAEAEAAAAGGEQEAQATAAAGEGDNGPGLQGPSREPPLADNLYDEDDDDEGEEEEEAAAAAIGYRDNLLFGDEIITNGFHSCESDEEDRASHASSSDWTPRPRIGPYTFVQQHLMIGTDPRTILKDLLPETIPPPELDDMTLWQIVINILSEPPKRKKRKDINTIEDAVKLLQECKKIIVLTGAGVSVSCGIPDFRSRDGIYARLAVDFPDLPDPQAMFDIEYFRKDPRPFFKFAKEIYPGQFQPSLCHKFIALSDKEGKLLRNYTQNIDTLEQVAGIQRIIQCHGSFATASCLICKYKVDCEAVRGDIFNQVVPRCPRCPADEPLAIMKPEIVFFGENLPEQFHRAMKYDKDEVDLLIVIGSSLKVRPVALIPSSIPHEVPQILINREPLPHLHFDVELLGDCDVIINELCHRLGGEYAKLCCNPVKLSEITEKPPRTQKELAYLSELPPTPLHVSEDSSSPERTSPPDSSVIVTLLDQAAKSNDDLDVSESKGCMEEKPQEVQTSRNVESIAEQMENPDLKNVGSSTGEKNERTSVAGTVRKCWPNRVAKEQISRRLDGNQYLFLPPNRYIFHGAEVYSDSEDDVLSSSSCGSNSDSGTCQSPSLEEPMEDESEIEEFYNGLEDEPDVPERAGGAGFGTDGDDQEAINEAISVKQEVTDMNYPSNKS

Tested on: NF-κB
Settings: Table 3, miscellaneous inhibitors of NF-κB; step of NF-κB function inhibited, per the cited reference; cited from earlier work

Row | Molecule | Effect or point of inhibition
1 | COc1cc([C@@H]2c3cc4c(c(OC)c3[C@H](O)[C@H]3COC(=O)[C@H]23)OCO4)cc(OC)c1O | Transactivation
2 | CC(=O)OC(CC=C(C)C)C(C)=CC(O)CC(C)=CCOc1ccc2ccc(=O)oc2c1 (centres unmarked) | Transactivation
3 | S=C([S-])OC1CC2CC1C1CCCC21.[K+] (centres unmarked) | Transactivation
4 | CCOC(=O)c1cnc(NC2=C(C)C(=O)NC2=O)nc1C(F)(F)F | Transactivation
5 | O=C(C=Cc1ccc(O)cc1)NCCc1c[nH]c2ccc(O)cc12 | DNA binding
6 | CS(=O)(=O)Nc1cc2occ(NC=O)c(=O)c2cc1Oc1ccccc1 | DNA binding
7 | COc1ccc(C=CC(=O)Nc2ccccc2C(=O)O)cc1OC | Transactivation
8 | CC(C)[C@]12O[C@H]1[C@@H]1O[C@]13[C@]1(O[C@H]1C[C@H]1C4=C(CC[C@@]13C)C(=O)OC4)[C@@H]2O | DNA binding
9 | COc1cc(/C=C/C(=O)c2ccc(F)cc2)cc(OC)c1OC [3,4,5-trimethoxy-4′-fluorochalcone] | Transactivation
10 | C=CCNC1=C2C[C@@H](C)C[C@H](OC)[C@H](O)[C@@H](C)/C=C(\C)[C@H](OC(N)=O)[C@@H](OC)/C=C\C=C(/C)C(=O)NC(=CC1=O)C2=O [17-allylamino-17-demethoxygeldanamycin] | Transactivation
11 | CC1(C)C[C@@H]1C(=O)Nc1ccc(Oc2ccc(NC(=O)[C@H]3CC3(C)C)cn2)cc1 [APC0576] | Transactivation
12 | C[C@H]1CCC[C@H](O)CCC/C=C/c2cc(O)cc(O)c2C(=O)O1 [Alpha-zearalenol] | Transactivation
13 | C[n+]1c2n(c(=O)c3ccccc31)CCc1c-2[nH]c2ccccc12 [Dehydroevodiamine] | Transactivation
14 | N[C@@H](Cc1c[nH]cn1)C(=O)O [Histidine] | Transactivation
15 | O=c1cc(N2CCOCC2)oc2c(-c3ccccc3)cccc12 [LY294,002] | Transactivation
16 | O=c1cc(-c2ccc(O)c(O)c2)oc2cc(O)cc(O)c12 [Luteolin] | p65 Transactivation
17 | COc1ccc(-c2cc(=O)c3c(OC)c(OC)c(OC)c(OC)c3o2)cc1OC [Nobiletin] | Transactivation
18 | COc1ccc(C(C)=O)c(O)c1 [Paeonol (from Mountain Cortx)] | Transactivation
19 | S=C=NCCc1ccccc1 [Phenethylisothiocyanate] | Transactivation
20 | CCCCCCCCCCCCC/C=C/[C@@H](O)[C@@H](N)CO[C@@H]1O[C@H](CO)[C@H](O)[C@H](O)[C@H]1O [Psychosine] | Transactivation
21 | Cn1cc(C2=C(c3cn(CCCSC(=N)N)c4ccccc34)C(=O)NC2=O)c2ccccc21 [RO31-8220 (PKC inhibitor)] | Transactivation
22 | O=C(Nc1ncc([N+](=O)[O-])s1)c1ccc([N+](=O)[O-])c(Cl)c1 [SM-7368 (small molecule)] | DNA binding

Row | Molecule | Effect or point of inhibition
23 | c1cc2c(cc1[C@H]1OC[C@H]3[C@@H]1CO[C@@H]3c1ccc3c(c1)OCO3)OCO2 [Sesamin (from sesame oil)] | DNA binding
24 | COC1=C[C@@H]2[C@@H]3Cc4ccc(OC)c(O)c4[C@]2(CCN3C)CC1=O [Sinomenine] | DNA binding
25 | O=C(O)c1cc(/N=N/c2ccc(S(=O)(=O)Nc3ccccn3)cc2)ccc1O [Sulfasalazine] | DNA binding
26 | Cc1nc(C)c(C)nc1C [Tetramethylpyrazine] | DNA binding
27 | [SH-].[SH-].[S]=[Mo]=[S] [Tetrathiomolybdate] | Transactivation
28 | O=C1NC(=O)C(Cc2ccc3cc(OCc4ccccc4F)ccc3c2)S1 (centres unmarked) [Thiazolidinedione MCC-555] | DNA binding
29 | CC(/C=C/C(=O)NO)=C\[C@@H](C)C(=O)c1ccc(N(C)C)cc1 [Trichostatin A] | RelA DNA binding
30 | CCCCC/C=C\C/C=C\CCCCCCCC(=O)OCC(COC(=O)CCCCCCC/C=C\C/C=C\CCCCC)OC(=O)CCCCCCC/C=C\C/C=C\CCCCC [Trilinolein] | Transactivation
31 | N#CC(C#N)=Cc1ccc([N+](=O)[O-])c(O)c1 [Tyrphostin AG-126] | DNA binding
32 | C[C@H]1[C@H](C)CC[C@]2(C(=O)O)CC[C@]3(C)C(=CC[C@@H]4[C@@]5(C)CC[C@H](O)C(C)(C)[C@@H]5CC[C@]43C)[C@H]12 [Ursolic acid] | DNA binding
33 | CC1=C(CO)C(=O)O[C@@H]([C@@H](C)[C@H]2CC[C@H]3[C@@H]4C[C@H]5O[C@]56[C@@H](O)C=CC(=O)[C@]6(C)[C@H]4CC[C@]23C)C1 [Withaferin A] | DNA binding
34 | COc1c(O)cc(O)c2c(=O)cc(-c3ccccc3)oc12 [Wogonin (5,7-dihydroxy-8-methoxyflavone)] | DNA binding
35 | COC[C@H]1OC(=O)c2coc3c2[C@@]1(C)C1=C(C3=O)[C@@H]2CCC(=O)[C@@]2(C)C[C@H]1OC(C)=O [Wortmannin (fungal metabolite)] | Transactivation
36 | COc1cc(O)c(CC=C(C)C)c(O)c1C(=O)/C=C/c1ccc(O)cc1 [Xanthohumol (a hops prenylflavonoid)] | DNA binding
37 | OC[C@@H](O)[C@H](O)[C@@H](O)CO [Xylitol] | DNA binding
38 | Artemisolide | Transactivation
39 | Siva-1 | DNA binding
40 | Tom1 (target of Myb-1) overexpression | DNA binding
41 | B1 | Transactivation
42 | B2 | DNA binding
43 | B3 | DNA binding
44 | B4 | DNA binding

Same assay, conditions: cited from earlier work

Row | Molecule | Effect or point of inhibition
45 | CCCCCCCCCCCCCC(=O)OCC/C(SS/C(CCOC(=O)CCCCCCCCCCCCC)=C(\C)N(C=O)Cc1cnc(C)nc1N)=C(/C)N(C=O)Cc1cnc(C)nc1N | Nuclear translocation
46 | C=C(C)[C@@H]1CC[C@]2(C(=O)O[C@@H]3O[C@H](CO[C@@H]4O[C@H](CO)[C@@H](O[C@@H]5O[C@@H](C)[C@H](O)[C@@H](O)[C@H]5O)[C@H](O)[C@H]4O)[C@@H](O)[C@H](O)[C@H]3O)CC[C@]3(C)[C@H](C[C@H]4OC(=O)C[C@@H](O)[C@]5(C)[C@@H]4[C@@]3(C)CC[C@H]5C(=C)C)[C@@H]12 [Chiisanoside] | RelA Nuclear translocation
47 | Oc1ccc(O)cc1 [Hydroquinone (HQ)] | DNA binding
48 | N[C@@H](CCC(=O)N[C@@H](CSN=O)C(=O)NCC(=O)O)C(=O)O [Nitrosoglutathione] | DNA binding
49 | C[S+]([O-])c1ccc(-c2nc(-c3ccc(F)cc3)c(-c3ccncc3)[nH]2)cc1 (centres unmarked) [SB203580 (p38 MAPK inhibitor)] | Transactivation
50 | mercury | DNA binding
